Source: PubChem BioAssay AID248 (DTP/NCI, 2004)
Where “and” joins values, the source holds several entries; their conditions need not be identical. Equal entries are not always repeated. Toxic doses and inconclusive results are not listed. Cut-off read from the data, not from the text of the source: active = T/C of 150% or more; inactive = T/C below 125%.

Test system: L1210 leukemia ip in BDF1 mice, survival T/C
Assay: NCI In Vivo Anticancer Drug Screen. Data for tumor model L1210 Leukemia (intraperitoneal) in B6D2F1 (BDF1) mice
Conditions: endpoint: mean survival time, higher = longer survival
Procedure, shortened: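 Each compound was tested against a transplantable tumor grown in mice. The endpoint was survival, with treated animals benchmarked against vehicle controls as a simple ratio.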

[1] = dose: 100.0 mg/kg/injection, schedule: Q01DX001 (ip), vehicle: carboxymethylcellulose (CMC)
[2] = dose: 200.0 mg/kg/injection, schedule: Q01DX001 (ip), vehicle: carboxymethylcellulose (CMC)
[3] = dose: 400.0 mg/kg/injection, schedule: Q01DX001 (ip), vehicle: carboxymethylcellulose (CMC)
[4] = dose: 75.0 mg/kg/injection, schedule: Q01DX001 (ip), vehicle: saline
[5] = dose: 150.0 mg/kg/injection, schedule: Q01DX001 (ip), vehicle: saline
[6] = dose: 100.0 mg/kg/injection, schedule: Q01DX001 (ip), vehicle: saline
[7] = dose: 200.0 mg/kg/injection, schedule: Q01DX001 (ip), vehicle: saline
[8] = dose: 400.0 mg/kg/injection, schedule: Q01DX001 (ip), vehicle: saline
[9] = dose: 50.0 mg/kg/injection, schedule: Q01DX009 (ip), vehicle: saline with Tween-80
[10] = dose: 100.0 mg/kg/injection, schedule: Q01DX009 (ip), vehicle: saline with Tween-80
[11] = dose: 200.0 mg/kg/injection, schedule: Q01DX009 (ip), vehicle: saline with Tween-80
[12] = dose: 100.0 mg/kg/injection, schedule: Q04DX003 (ip), vehicle: saline
[13] = dose: 100.0 mg/kg/injection, schedule: Q01DX009 (ip), vehicle: Klucel (hydroxypropylcellulose) (HPC)
[14] = dose: 100.0 mg/kg/injection, schedule: Q04DX003 (ip), vehicle: Klucel (hydroxypropylcellulose) (HPC)
[15] = dose: 200.0 mg/kg/injection, schedule: Q01DX009 (ip), vehicle: Klucel (hydroxypropylcellulose) (HPC)
[16] = dose: 200.0 mg/kg/injection, schedule: Q04DX003 (ip), vehicle: Klucel (hydroxypropylcellulose) (HPC)
[17] = dose: 400.0 mg/kg/injection, schedule: Q01DX009 (ip), vehicle: Klucel (hydroxypropylcellulose) (HPC)
[18] = dose: 400.0 mg/kg/injection, schedule: Q04DX003 (ip), vehicle: Klucel (hydroxypropylcellulose) (HPC)
[19] = dose: 100.0 mg/kg/injection, schedule: Q04DX003 (ip), vehicle: saline with Tween-80
[20] = dose: 200.0 mg/kg/injection, schedule: Q04DX003 (ip), vehicle: saline with Tween-80
[21] = dose: 400.0 mg/kg/injection, schedule: Q04DX003 (ip), vehicle: saline with Tween-80

Measured: T/C

CS(=O)(=O)c1ccc2c(c1)-c1ccccc1C2=O
inactive: [1] 96 % of control | [2] 104 % of control | [3] 98 % of control

c1ccc2c(c1)[nH]c1c2c[n+]2c3c(cccc13)CCC2
inactive: dose: 3.13 mg/kg/injection, schedule: Q01DX009 (ip), vehicle: saline 105 % of control | dose: 6.25 mg/kg/injection, schedule: Q01DX009 (ip), vehicle: saline 105 % of control | dose: 12.5 mg/kg/injection, schedule: Q01DX009 (ip), vehicle: saline 105 % of control

COc1ccc2c(c1O)[C@]13CCN(C)[C@H](C2)[C@@H]1CCC(=O)C3
inactive: [4] 101 % of control | [5] 106 % of control

CCC1=CCN2CCC34c5cc(C6(C(=O)OC)CC7CC(CC)CN(CCc8c6[nH]c6ccccc86)C7)c(OC)cc5N(C)C3C(O)(C(=O)OC)C(OC(C)=O)C1C24 (stereo unspecified)
inactive: dose: 0.8 mg/kg/injection, schedule: Q01DX001 (ip), vehicle: saline 100 % of control | dose: 1.6 mg/kg/injection, schedule: Q01DX001 (ip), vehicle: saline 100 % of control | dose: 3.2 mg/kg/injection, schedule: Q01DX001 (ip), vehicle: saline 101 % of control | dose: 6.4 mg/kg/injection, schedule: Q01DX001 (ip), vehicle: saline 97 % of control

C/C=C(\Br)C(=O)N1CCCCC1
inactive: [6] 94 % of control | [7] 100 % of control | [8] 95 % of control

NNC(=O)c1ccc(N)cc1
inactive: dose: 50.0 mg/kg/injection, schedule: Q01DX001 (ip), vehicle: carboxymethylcellulose (CMC) 95 % of control | [9] 93 % of control | [1] 86 % of control | [10] 104 % of control | [2] 95 % of control | [11] 100 % of control | [3] 103 % of control

COc1cc(N2CCOCC2)ccc1N
inactive: dose: 25.0 mg/kg/injection, schedule: Q01DX009 (ip), vehicle: saline 89 % of control | dose: 25.0 mg/kg/injection, schedule: Q04DX003 (ip), vehicle: saline 100 % of control | dose: 50.0 mg/kg/injection, schedule: Q01DX009 (ip), vehicle: saline 95 % of control | dose: 50.0 mg/kg/injection, schedule: Q04DX003 (ip), vehicle: saline 101 % of control | [12] 103 % of control

CC(=O)CC(=O)Nc1ccc(-c2ccc(NC(=O)CC(C)=O)c(Cl)c2)cc1Cl
inactive: [13] 95 % of control | [14] 98 % of control | [15] 97 % of control | [16] 98 % of control | [17] 93 % of control | [18] 91 % of control

c1ccc(-c2[nH]c(-c3ccccc3)c(-c3ccccc3)c2-c2ccccc2)cc1
inactive: [9] 102 % of control | [10] 95 % of control | [11] 95 % of control

O=S(=O)(NC1CCC(CC2CCCCC2)CC1)c1ccccc1 (stereo unspecified)
inactive: [13] 101 % of control | [14] 96 % of control | [15] 104 % of control | [16] 97 % of control | [17] 106 % of control | [18] 94 % of control

CCc1c(Nc2ccccc2Cl)[nH]c(N)nc1=S
inactive: dose: 100.0 mg/kg/injection, schedule: Q01DX Z (ip), vehicle: methylcellulose (MC) 97 % of control | dose: 200.0 mg/kg/injection, schedule: Q01DX Z (ip), vehicle: methylcellulose (MC) 97 % of control

C=CCNC(=S)OCC
inactive: dose: 100.0 mg/kg/injection, schedule: Q04DX002 (ip), vehicle: saline with Tween-80 100 % of control | dose: 200.0 mg/kg/injection, schedule: Q04DX002 (ip), vehicle: saline with Tween-80 97 % of control | dose: 400.0 mg/kg/injection, schedule: Q04DX002 (ip), vehicle: saline with Tween-80 103 % of control

CC(C)C12OC1CC1C3(C)CCCC(C)(C(=O)O)C3CCC13OC32 (stereo unspecified)
inactive: [10] 98 % of control | [19] 90 % of control | [11] 96 % of control | [20] 90 % of control | dose: 400.0 mg/kg/injection, schedule: Q01DX009 (ip), vehicle: saline with Tween-80 93 % of control | [21] 90 % of control

CCCCCC#CC(=O)OCCC
inactive: dose: 100.0 mg/kg/injection, schedule: Q04DX002 (ip), vehicle: Klucel (hydroxypropylcellulose) (HPC) 97 % of control | dose: 200.0 mg/kg/injection, schedule: Q04DX002 (ip), vehicle: Klucel (hydroxypropylcellulose) (HPC) 101 % of control | dose: 400.0 mg/kg/injection, schedule: Q04DX002 (ip), vehicle: Klucel (hydroxypropylcellulose) (HPC) 101 % of control

CCN(CC)c1ccc(N=C2C=C(C(=O)Nc3ccccc3OC)C(=O)c3ccccc32)c(C)c1
inactive: [6] 102 % of control | [7] 105 % of control | [8] 96 % of control

CC1COCC(C)N1CCC(=O)Nc1ccc(S(=O)(=O)c2ccc(NC(=O)CCN3C(C)COCC3C)cc2)cc1 (stereo unspecified)
inactive: [1] 107 % of control | [2] 104 % of control | [3] 101 % of control

COP(N)(=S)OC
inactive: [4] 101 % of control | [5] 98 % of control | dose: 300.0 mg/kg/injection, schedule: Q01DX001 (ip), vehicle: saline 104 % of control

Nc1ccc([N+](=O)[O-])cc1C(O)(C(F)(F)F)C(F)(F)F (tested in a mixture with another compound)
inactive: [10] 101 % of control | [19] 101 % of control | [11] 94 % of control | [20] 100 % of control | [21] 97 % of control

Cc1cnccc1N=Nc1ccc(N(C)C)cc1
inactive: [19] 104 % of control | [20] 104 % of control | [21] 101 % of control

CC(=O)c1ccc2c(c1)Nc1ccccc1S2
inactive: dose: 50.0 mg/kg/injection, schedule: Q04DX003 (ip), vehicle: Klucel (hydroxypropylcellulose) (HPC) 97 % of control | [13] 104 % of control and 102 % of control | [14] 101 % of control | [15] 106 % of control and 94 % of control | [16] 102 % of control | [17] 95 % of control and 91 % of control | [18] 91 % of control

N#Cc1ccc(OC(=O)c2ccc(N=C(N)N)cc2)cc1
inactive: dose: 100.0 mg/kg/injection, schedule: Q01DX009 (ip), vehicle: saline 94 % of control | [12] 96 % of control | dose: 200.0 mg/kg/injection, schedule: Q01DX009 (ip), vehicle: saline 91 % of control | dose: 200.0 mg/kg/injection, schedule: Q04DX003 (ip), vehicle: saline 93 % of control | dose: 400.0 mg/kg/injection, schedule: Q04DX003 (ip), vehicle: saline 88 % of control

CCc1cccc(CC)c1N1C(=O)C=CC1=O
inactive: dose: 1.56 mg/kg/injection, schedule: Q01DX009 (ip), vehicle: other 102 % of control | dose: 3.13 mg/kg/injection, schedule: Q01DX009 (ip), vehicle: other 105 % of control | dose: 3.13 mg/kg/injection, schedule: Q04DX002 (ip), vehicle: other 87 % of control | dose: 6.25 mg/kg/injection, schedule: Q01DX009 (ip), vehicle: other 105 % of control | dose: 6.25 mg/kg/injection, schedule: Q04DX002 (ip), vehicle: other 93 % of control | dose: 12.5 mg/kg/injection, schedule: Q04DX002 (ip), vehicle: other 107 % of control
